# Data as given in patent US20250304623A1, “PEPTIDES FOR INTRACELLULAR DELIVERY” (UNIVERSIDADE DE SANTIAGO DE COMPOSTELA, priority 2022, published 2025).
# Starred links: 1 amine or outer side, 2 acyl side, 3 side chain; linkers in the order of their positions; H or OH if unused. Residues, ends and D or L forms follow the SMILES beside them. Groups on a side chain read outwards from the residue. *: point of attachment. Glutaryl = O=C(CCCC(=O)[*:2])[*:1]; NHNH2 = NN*
# Legend:
# Type in all cases: cell-based
# Hek293 cells = assay: EGFP mRNA delivery, robotic library screening, Hek293
# Description: Cells were seeded in a 96 well plate the day before the experiment at a concentration of 50,000 cell/mL (100 μL/w) in DMEM+10% FBS+1% Gln-Abt. For robotic library screening, the delivery of EGFP-mRNA (from TriLink, fully substituted with 5-methoxyuridine, capped and polyadenylated; TriLink, CleanCap® EGFP mRNA (5moU), ref. L-7201) in six different cell lines was performed. Amphiphilic molecule stock solutions were prepared in DMSO as described above and diluted in DMEM to afford a range of concentrations. The solutions of EGFP-mRNA/amphiphilic molecule complexes were freshly prepared prior to the transfection experiments. 35 μL of the corresponding amphiphile were added to 10 μL of a solution of EGFP-mRNA at 10 ng/μL in DMEM. The mixture was shaken for 30 min at room temperature before the addition to the cells. The cell medium was aspirated, and cells were washed with PBS twice. Cells were covered with 39 μL of DMEM and 11 μL of the complex's solution were added to the cells and incubated for 4 h (final concentration of peptide=2.5, 5 and 10 μM; final concentration of EGFP-mRNA=25 ng/well). After the incubation, the medium was replaced by 100 μL of fresh DMEM supplemented with 10% FBS. The total EGFP fluorescence was quantified after 72 h in a well plate reader. Amphiphile transfection efficiency was compared and normalized to Lipofectamine® MessengerMax efficiency (value of 1 in Tables 1-5 and 7; double underlined numbers). All experiments were done in triplicate.
# (§1) Tables 1-7: RLuc (pDNA) or EGFP (mRNA) expression levels were normalized to Lipofectamine reagents (value=1) and expressed as fold-times signal increase. In the case of siRNA, the siRNA treated cells fluorescence was compared with siMOCK control fluorescence, while Cas9-RNP mediated knockout was measured against the fluorescence of untreated cells. In both siRNA and Cas9-RNP, values are expressed as % fluorescence reduction. Amphiphile concentration was 5 μM in all cases. All experiments were performed in triplicate.
# Tables 14-19 show the mean (triplicates) fluorescence intensity measured after the transfection of EGFP mRNA by different amphiphiles at different concentrations in a variety of cell lines. Background fluorescence values, accounted by untreated control cells, were subtracted for processing.
# A549 cells = assay: RLuc pDNA delivery, robotic library screening, A549
# Method in brief: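 A549 cells in DMEM+10% FBS were washed twice with PBS and exposed for 4 h to amphiphile/RLuc pDNA complexes prepared from DMSO stocks diluted in DMEM. After medium replacement and 72 hours, cells in HBSS were incubated at 37° C. for 30 minutes, basal then total luminescence measured after 5 μM coelenterazine h; background from untransfected cells was subtracted.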
# [1] = system: Hek293 cells expressing EGFP; assay: EGFP-targeting siRNA delivery (GFP silencing vs siMOCK), Hek293
# Description: To generate an EGFP expressing HeLa cell line, HeLa cells were transfected with EGFP pDNA (pEGFP-C1, Clontech) and stable transfectants were selected with 400 μg/mL of G-418 (Millipore). Green clones were selected by epifluorescence microscopy and tested for EGFP expression stability through several passages. […] All other EGFP-expressing cell lines were obtained in a similar way from parent non-EGFP-expressing cell lines.
# Cells expressing EGFP were seeded in a 96 well plate the day before the experiment at a concentration of 50,000 cell/mL (100 μL/w) in DMEM+10% FBS+1% Gln-Abt. For robotic library screening, the delivery of an EGFP-targeting siRNA (EGFP: enhanced green fluorescent protein, Ambion® Silencer® GFP Positive Control siRNA (siGFP) (AM4626)) in six different cell lines expressing EGFP was performed. […] The mixture was shaken for 30 min at room temperature (rt) before the addition to the cells. The cell medium was aspirated, and cells were washed twice with PBS. Finally, 50 μL of the solution of siRNA/amphiphile complexes were added to the cells and incubated for 4 h. After transfection, the medium was replaced by 100 μL of fresh DMEM supplemented with 10% FBS. The fluorescence knockdown was quantified after 72 h in a plate reader, by comparison with cells transfected with a non-targeting siRNA control (siMOCK, Silencer™ Negative Control No. 1 siRNA (siMOCK) (AM4611)). EGFP knockdown was compared with Lipofectamine® RNAiMAX silencing efficiency (30-60% depending on cell line, defined with a numeric value in the below tables). All experiments were done in triplicate.
# as §1
# Tables 20-25 show the mean (triplicates) percentage of GFP-silencing, accounted by fluorescence intensity decrease relative to a non-targeting siRNA (siMOCK) control, measured after the transfection of siRNA by different amphiphiles at different concentrations in a variety of cell lines. Background values, accounted by untreated control cells, were subtracted for processing.
Compound,"mean fluorescence intensity (EGFP mRNA) (Hek293 cells; Oleyl, 2.5 μM)","mean fluorescence intensity (EGFP mRNA) (Hek293 cells; Oleyl, 5 μM)","mean fluorescence intensity (EGFP mRNA) (Hek293 cells; Oleyl, 10 μM)","mean fluorescence intensity (EGFP mRNA) (Hek293 cells; Palmitoleyl, 2.5 μM)","mean fluorescence intensity (EGFP mRNA) (Hek293 cells; Palmitoleyl, 5 μM)","mean fluorescence intensity (EGFP mRNA) (Hek293 cells; Palmitoleyl, 10 μM)","mean fluorescence intensity (EGFP mRNA) (Hek293 cells; Petroselinyl, 2.5 μM)","mean fluorescence intensity (EGFP mRNA) (Hek293 cells; Petroselinyl, 5 μM)","mean fluorescence intensity (EGFP mRNA) (Hek293 cells; Petroselinyl, 10 μM)","mean luminescent intensity (RLuc pDNA) (A549 cells; Myristoleyl, 5 μM) [RLU]","mean luminescent intensity (RLuc pDNA) (A549 cells; Myristoleyl, 10 μM) [RLU]","mean luminescent intensity (RLuc pDNA) (A549 cells; Myristoleyl, 15 μM) [RLU]","mean luminescent intensity (RLuc pDNA) (A549 cells; Oleyl, 5 μM) [RLU]","mean luminescent intensity (RLuc pDNA) (A549 cells; Palmitoleyl, 10 μM) [RLU]","mean luminescent intensity (RLuc pDNA) (A549 cells; Palmitoleyl, 15 μM) [RLU]","mean luminescent intensity (RLuc pDNA) (A549 cells; Petroselinyl, 10 μM) [RLU]","mean luminescent intensity (RLuc pDNA) (A549 cells; Petroselinyl, 15 μM) [RLU]","percentage of GFP-silencing relative to siMOCK ([1]; Dodecanal, 15 μM) [%]","percentage of GFP-silencing relative to siMOCK ([1]; Myristoleyl, 5 μM) [%]","percentage of GFP-silencing relative to siMOCK ([1]; Palmitoleyl, 10 μM) [%]",other results
"CC(=O)N[C@@H](CCCNC(=N)N)C(=O)N[C@@H](CCCCNC(=O)CCCC(=O)NN)C(=O)N[C@@H](Cc1c[nH]cn1)C(=O)N[C@@H](CCCNC(=N)N)C(=O)N[C@@H](CCCCNC(=O)CCCC(=O)NN)C(=O)N[C@@H](CCCCNC(=O)CCCC(=O)NN)C(=O)N[C@@H](Cc1c[nH]cn1)C(N)=O [7.3(L-H), Ac-RK*HRK*K*H-NH2] (Ac-RK([Glutaryl-NHNH2])HRK([Glutaryl-NHNH2])K([Glutaryl-NHNH2])H-NH2)",9690,17787,1626,13282,12872,4716,29561,12351,6511,184442,147873,31551,4031,140079,105643,139603,6719,14,−3,6,"mean fluorescence intensity (EGFP mRNA) (Hek293 cells; Dodecanal, 2.5 μM): 1201; mean fluorescence intensity (EGFP mRNA) (Hek293 cells; Dodecanal, 5 μM): 588; mean fluorescence intensity (EGFP mRNA) (Hek293 cells; Dodecanal, 10 μM): 3588; mean fluorescence intensity (EGFP mRNA) (Hek293 cells; Myristoleyl, 2.5 μM): 21438; mean fluorescence intensity (EGFP mRNA) (Hek293 cells; Myristoleyl, 5 μM): 11945; mean fluorescence intensity (EGFP mRNA) (Hek293 cells; Myristoleyl, 10 μM): 1626; mean luminescent intensity (RLuc pDNA) (A549 cells; Palmitoleyl, 5 μM): 109148 RLU; mean luminescent intensity (RLuc pDNA) (A549 cells; Petroselinyl, 5 μM): 94011 RLU; pDNA delivery, times better than Lipofectamine 2000 (A549 cells; palmitoleyl or petroselinyl aldehydes): 30 times"
"Ac-RRHK*RLK*RRLK*RL-NH2 (Ac-RRHK(NHNH2)RLK(NHNH2)RRLK(NHNH2)RL-NH2; not fully specified; printed as Ac-RRHK*RLK*RRLK*RL-NH2; also: K*4,K*7,K*11: native or modified lysine (ε-amide to a linker)) [13(Leu-His)]",–,–,–,4730,1141,–,629,−150,−168,–,–,–,17058,–,–,–,2865,57,41,–,"percentage of GFP-silencing relative to siMOCK ([1]; Dodecanal, 5 μM): 43%; percentage of GFP-silencing relative to siMOCK ([1]; Dodecanal, 10 μM): 18%; percentage of GFP-silencing relative to siMOCK ([1]; Myristoleyl, 10 μM): 37%; percentage of GFP-silencing relative to siMOCK ([1]; Myristoleyl, 15 μM): 9%; percentage of GFP-silencing relative to siMOCK ([1]; Oleyl, 10 μM): 62%; percentage of GFP-silencing relative to siMOCK ([1]; Oleyl, 15 μM): 21%; percentage of GFP-silencing relative to siMOCK ([1]; Palmitoleyl, 5 μM): 26%; percentage of GFP-silencing relative to siMOCK ([1]; Petroselinyl, 5 μM): 43%; percentage of GFP-silencing relative to siMOCK ([1]; Petroselinyl, 10 μM): 43%; percentage of GFP-silencing relative to siMOCK ([1]; Petroselinyl, 15 μM): 33%"
"Ac-RK*LRRK*LRK*-NH2 (Ac-RK(NHNH2)LRRK(NHNH2)LRK(NHNH2)-NH2; not fully specified; printed as Ac-RK*LRRK*LRK*-NH2; also: K*2,K*6,K*9: native or modified lysine (ε-amide to a linker)) [Peptide 9.3]",1416,2885,466,–,1665,1394,1364,4636,643,23125,32698,6504,–,5800,9967,4167,5514,40,–,17,"mean luminescent intensity (RLuc pDNA) (A549 cells; Dodecanal, 10 μM): 2898 RLU; mean luminescent intensity (RLuc pDNA) (A549 cells; Oleyl, 10 μM): 1117 RLU; mean luminescent intensity (RLuc pDNA) (A549 cells; Oleyl, 15 μM): 1433 RLU; percentage of GFP-silencing relative to siMOCK ([1]; Dodecanal, 5 μM): 19%; percentage of GFP-silencing relative to siMOCK ([1]; Myristoleyl, 10 μM): 10%; percentage of GFP-silencing relative to siMOCK ([1]; Myristoleyl, 15 μM): 43%; percentage of GFP-silencing relative to siMOCK ([1]; Oleyl, 15 μM): 28%; percentage of GFP-silencing relative to siMOCK ([1]; Palmitoleyl, 15 μM): 36%; percentage of GFP-silencing relative to siMOCK ([1]; Petroselinyl, 10 μM): 3%; percentage of GFP-silencing relative to siMOCK ([1]; Petroselinyl, 15 μM): −12%"
